Structures can show the parent of a compound that is named as a salt. Where two headings read alike, the source gives them in different places. Some results are limits rather than exact numbers.

Common to all, as to assay type: biochemical
Assay [1] has as its target T1, human JAK2 (a.a. 828-1132) (Homo sapiens, UniProt O60674).
T1 construct: JAK2 (a.a. 828-1132); His tag (N); made in house; host or cells: insect cells (baculovirus)
Description: In vitro JAK kinase assay (HTRF, phosphorylation of a biotinylated peptide), JAK2. The settings on record: Table D1. The protocol:
(§1) The catalytic activity of JAK1, JAK2 or JAK3 was assayed by measuring the phosphorylation of a biotinylated peptide. The phosphorylated peptide was detected by homogenous time resolved fluorescence (HTRF). […] The ATP concentration in the reactions was 90 μM for JAK1, 30 μM for JAK2 and 3 μM for JAK3. Reactions were carried out at room temperature for 1 hr and then stopped with 20 μL 45 mM EDTA, 300 nM SA-APC, 6 nM Eu-Py20 in assay buffer (Perkin Elmer, Boston, Mass.). Binding to the Europium labeled antibody took place for 40 minutes and HTRF signal was measured on a Fusion plate reader (Perkin Elmer, Boston, Mass.).
(§2) The catalytic activity of JAK1, JAK2 or JAK3 was assayed by measuring the phosphorylation of a biotinylated peptide. The phosphorylated peptide was detected by homogenous time resolved fluorescence (HTRF). […] Reactions were carried out at room temperature for 1 hr and then stopped with 20 μL 45 mM EDTA, 300 nM SA-APC, 6 nM Eu-Py20 in assay buffer (Perkin Elmer, Boston, Mass.). Binding to the Europium labeled antibody took place for 40 minutes and HTRF signal was measured on a Fusion plate reader (Perkin Elmer, Boston, Mass.).
In general terms: TR-FRET usually uses a lanthanide donor and a delayed reading to cut background.

The target in assay [2] is T2, human JAK1 (a.a. 837-1142) (Homo sapiens, UniProt P23458).
T2 construct: human JAK1 (a.a. 837-1142); His tag (N); made in house; host or cells: insect cells (baculovirus)
T2 sequence (P23458 849-1154): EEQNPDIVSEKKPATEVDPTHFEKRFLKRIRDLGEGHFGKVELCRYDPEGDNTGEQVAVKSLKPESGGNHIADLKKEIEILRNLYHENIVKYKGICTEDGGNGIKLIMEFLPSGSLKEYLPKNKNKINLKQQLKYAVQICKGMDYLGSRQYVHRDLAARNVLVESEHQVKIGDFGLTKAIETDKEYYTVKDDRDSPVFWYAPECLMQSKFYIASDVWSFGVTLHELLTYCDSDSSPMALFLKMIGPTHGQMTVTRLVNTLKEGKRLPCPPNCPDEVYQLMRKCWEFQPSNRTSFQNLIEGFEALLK
Description: In vitro JAK kinase assay (HTRF, phosphorylation of a biotinylated peptide), JAK1. The following applies: read-out: JAK1 IC50. On the procedure: as §1, §2

The target of a further assay is TYK2 (Homo sapiens, UniProt P29597). Description: TYK2 kinase inhibition (Table A1).
Chain of TYK2 (P29597 whole entry): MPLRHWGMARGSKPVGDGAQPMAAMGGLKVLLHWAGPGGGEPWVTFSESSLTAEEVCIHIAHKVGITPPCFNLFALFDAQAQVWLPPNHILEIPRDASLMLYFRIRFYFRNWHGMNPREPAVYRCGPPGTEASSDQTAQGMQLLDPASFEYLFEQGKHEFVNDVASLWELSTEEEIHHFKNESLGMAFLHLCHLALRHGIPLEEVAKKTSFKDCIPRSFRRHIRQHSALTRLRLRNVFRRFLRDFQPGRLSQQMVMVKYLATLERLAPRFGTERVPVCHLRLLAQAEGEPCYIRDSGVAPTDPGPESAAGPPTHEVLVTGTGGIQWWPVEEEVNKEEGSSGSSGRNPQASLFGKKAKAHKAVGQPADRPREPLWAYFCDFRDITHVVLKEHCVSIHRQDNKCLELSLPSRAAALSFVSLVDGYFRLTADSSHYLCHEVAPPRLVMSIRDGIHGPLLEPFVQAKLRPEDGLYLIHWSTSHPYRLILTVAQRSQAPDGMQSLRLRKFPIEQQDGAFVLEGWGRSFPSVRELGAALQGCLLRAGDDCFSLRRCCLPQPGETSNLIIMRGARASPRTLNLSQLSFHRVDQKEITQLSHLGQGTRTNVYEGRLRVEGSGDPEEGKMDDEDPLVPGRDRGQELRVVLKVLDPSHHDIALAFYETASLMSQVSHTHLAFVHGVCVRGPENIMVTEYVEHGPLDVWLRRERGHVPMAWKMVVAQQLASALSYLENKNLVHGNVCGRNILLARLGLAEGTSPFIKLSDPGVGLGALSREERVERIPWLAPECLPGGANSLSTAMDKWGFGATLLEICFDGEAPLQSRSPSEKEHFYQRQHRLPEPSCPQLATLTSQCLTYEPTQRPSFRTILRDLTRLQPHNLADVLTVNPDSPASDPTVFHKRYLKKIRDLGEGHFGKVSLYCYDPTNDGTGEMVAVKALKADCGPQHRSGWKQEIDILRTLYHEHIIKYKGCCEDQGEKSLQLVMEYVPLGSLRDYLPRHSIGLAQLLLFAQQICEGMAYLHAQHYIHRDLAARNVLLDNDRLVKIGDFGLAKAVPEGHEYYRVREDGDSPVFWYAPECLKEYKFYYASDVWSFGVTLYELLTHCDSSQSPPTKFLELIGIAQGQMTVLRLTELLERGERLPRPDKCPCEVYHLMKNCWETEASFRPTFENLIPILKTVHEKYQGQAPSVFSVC
Assay [3] has as its target T3, human JAK3 (a.a. 781-1124) (Homo sapiens, UniProt P52333).
T3 construct: JAK3 (a.a. 781-1124); His tag (N); made in house; host or cells: insect cells (baculovirus)
Description: In vitro JAK kinase assay (HTRF, phosphorylation of a biotinylated peptide), JAK3. The protocol: as §1, §2

T1 sequence (O60674 828-1132): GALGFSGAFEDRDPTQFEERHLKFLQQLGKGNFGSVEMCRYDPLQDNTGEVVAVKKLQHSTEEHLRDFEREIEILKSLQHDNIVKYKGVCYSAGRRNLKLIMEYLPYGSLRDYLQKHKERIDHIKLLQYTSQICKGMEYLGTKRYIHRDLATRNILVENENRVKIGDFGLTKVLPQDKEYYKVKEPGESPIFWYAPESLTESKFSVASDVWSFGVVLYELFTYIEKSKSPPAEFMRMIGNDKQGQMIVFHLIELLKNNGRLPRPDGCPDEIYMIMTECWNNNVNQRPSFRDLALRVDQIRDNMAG
T3 sequence (P52333 781-1124): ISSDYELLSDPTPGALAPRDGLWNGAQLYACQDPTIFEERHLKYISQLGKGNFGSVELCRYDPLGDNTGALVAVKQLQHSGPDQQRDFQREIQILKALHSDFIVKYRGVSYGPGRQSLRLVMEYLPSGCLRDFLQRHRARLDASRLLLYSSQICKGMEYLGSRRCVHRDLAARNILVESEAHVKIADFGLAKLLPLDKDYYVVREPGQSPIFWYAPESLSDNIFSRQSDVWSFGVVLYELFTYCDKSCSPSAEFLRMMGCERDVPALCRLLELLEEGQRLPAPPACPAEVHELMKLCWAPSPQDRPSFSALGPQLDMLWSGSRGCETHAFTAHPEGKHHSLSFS

For `CN1c2cccc(c2)CCc2cncc(c2)Nc2nccc1n2` [Example D224, 8-Methyl-2,4,8,18,22-pentaazatetracyclo[14.3.1.1(3,7).1(9,13)]docosa-1(20),3(22),4,6,9(21),10,12,16,18-nonaene bis(trifluoroacetate)], the IC50 was 126 nM in assay [1], 300 nM in assay [2] (Table D1), more than 400 nM against TYK2 (Table D1) and more than 400 nM in assay [3] (Table D1).
Regarding `O=C(Nc1ccc2cc1CCc1cccc(c1)Nc1ncc(Cl)c(n1)N2)c1nc2ccccc2s1` [Example B74, N-[6-Chloro-2,4,8,22-tetraazatetracyclo[14.3.1.1(3,7).1(9,13)]docosa-1(20), 3(22),4,6,9(21),10,12,16,18-nonaen-12-yl]-1,3-benzothiazole-2-carboxamide trifluoroacetate], the 50% inhibitory concentration (IC50) (in assay [2] (Table B1); on TYK2 (Table B1); in assay [3] (Table B1)) was more than 1000 nM throughout.
With `c1cc2cc(c1)Nc1ccnc(n1)Nc1cncc(c1)CC2` [Example D217, 2,4,8,18,22-Pentaazatetracyclo[14.3.1.1(3,7).1(9,13)]docosa-1(20),3(22),4,6,9(21),10,12,16,18-nonaene bis(trifluoroacetate)], the concentration for half-maximal inhibition (IC50) in assay [1] is 103 nM; in assay [2] (Table D1), 53 nM; in assay [3] (Table D1), more than 400 nM.
Turning to `N#Cc1ccccc1NC(=O)N1CC[C@@H](CC(=O)Nc2ccc3cc2CCc2cncc(c2)Nc2ncc(Cl)c(n2)N3)C1` [Example D116, (3S)-3-(2-{[6-Chloro-2,4,8,18,22-pentaazatetracyclo[14.3.1.1(3,7).1(9,13)]docosa-1(20),3(22),4,6,9(21),10,12,16,18-nonaen-12-yl]amino}-2-oxoethyl)-N-(2-cyanophenyl)pyrrolidine-1-carboxamide bis(trifluoroacetate)], the half-maximal inhibitory concentration (IC50) was 577 nM in assay [1] and 23 nM in assay [2] (Table D1).
As for `O=C(C[C@H]1CCN(C(=O)Nc2ccccc2)C1)Nc1ccc2cc1CCc1cncc(c1)Nc1ncc(Cl)c(n1)N2` [Example D97, (3R)-3-(2-{[6-Chloro-2,4,8,18,22-pentaazatetracyclo[14.3.1.1(3,7).1(9,13)]docosa-1(20),3(22),4,6,9(21),10,12,16,18-nonaen-12-yl]amino}-2-oxoethyl)-N-phenylpyrrolidine-1-carboxamide bis(trifluoroacetate)], the IC50 is 84 nM in assay [1] and 3.3 nM in assay [2] (Table D1).
The like results for `Cn1cc(C(=O)N2CC[C@H](CC(=O)Nc3ccc4cc3CCc3cncc(c3)Nc3ncc(Cl)c(n3)N4)C2)cn1` [Example D107, N-[6-Chloro-2,4,8,18,22-pentaazatetracyclo[14.3.1.1(3,7).1(9,13)]docosa-1(20),3(22),4,6,9(21),10,12,16,18-nonaen-12-yl]-2-{(3R)-1-[(1-methyl-1H-pyrazol-4-yl)carbonyl]pyrrolidin-3-yl}acetamide bis(trifluoroacetate)] were, in that order, 185 nM and 25 nM.
For `O=C(C[C@@H]1CCCN(c2nc3ccccc3s2)C1)Nc1ccc2cc1CCc1cncc(c1)Nc1ncc(Cl)c(n1)N2` [Example D211, 2-[(3S)-1-(1,3-Benzothiazol-2-yl)piperidin-3-yl]-N-[6-chloro-2,4,8,18,22-pentaazatetracyclo[14.3.1.1(3,7).1(9,13)]docosa-1(20),3(22),4,6,9(21),10,12,16,18-nonaen-12-yl]acetamide tris(trifluoroacetate)], the values for the half-maximal inhibitory concentration (IC50) in assay [1] and in assay [2] (Table D1) were 160 nM and 4.2 nM, respectively.
The like results for `O=C(C[C@H]1CCN(C(=O)c2nc[nH]n2)C1)Nc1ccc2cc1CCc1cncc(c1)Nc1ncc(Cl)c(n1)N2` [Example D128, N-[6-Chloro-2,4,8,18,22-pentaazatetracyclo[14.3.1.1(3,7).1(9,13)]docosa-1(20),3(22),4,6,9(21),10,12,16,18-nonaen-12-yl]-2-[(3R)-1-(1H-1,2,4-triazol-3-ylcarbonyl)pyrrolidin-3-yl]acetamide bis(trifluoroacetate)] were, in that order, 199 nM and 21 nM.
The corresponding values for `O=C(C[C@H]1CCN(C(=O)c2nccs2)C1)Nc1ccc2cc1CCc1cncc(c1)Nc1ncc(Cl)c(n1)N2` [Example D110, N-[6-Chloro-2,4,8,18,22-pentaazatetracyclo[14.3.1.1(3,7).1(9,13)]docosa-1(20),3(22),4,6,9(21),10,12,16,18-nonaen-12-yl]-2-[(3R)-1-(1,3-thiazol-2-ylcarbonyl)pyrrolidin-3-yl]acetamide bis(trifluoroacetate)] are 222 nM and 22 nM.
Take `O=C(C[C@H]1CCN(C(=O)Nc2cccc(F)c2)C1)Nc1ccc2cc1CCc1cncc(c1)Nc1ncc(Cl)c(n1)N2` [Example D103, (3R)-3-(2-{[6-Chloro-2,4,8,18,22-pentaazatetracyclo[14.3.1.1(3,7).1(9,13)]docosa-1(20),3(22),4,6,9(21),10,12,16,18-nonaen-12-yl]amino}-2-oxoethyl)-N-(3-fluorophenyl)pyrrolidine-1-carboxamide bis(trifluoroacetate)]: the IC50 in assay [1] was found to be 113 nM; in assay [2] (Table D1), 6.7 nM.
The like results for `O=C(C[C@@H]1CCN(C(=O)c2nc[nH]n2)C1)Nc1ccc2cc1CCc1cncc(c1)Nc1ncc(Cl)c(n1)N2` [Example D131, N-[6-Chloro-2,4,8,18,22-pentaazatetracyclo[14.3.1.1(3,7).1(9,13)]docosa-1(20),3(22),4,6,9(21),10,12,16,18-nonaen-12-yl]-2-[(3S)-1-(1H-1,2,4-triazol-3-ylcarbonyl)pyrrolidin-3-yl]acetamide bis(trifluoroacetate)] were, in that order, 125 nM and 8.6 nM.
The corresponding values for `Cc1oncc1C(=O)N1CC[C@H](CC(=O)Nc2ccc3cc2CCc2cncc(c2)Nc2ncc(Cl)c(n2)N3)C1` [Example D108, N-[6-Chloro-2,4,8,18,22-pentaazatetracyclo[14.3.1.1(3,7).1(9,13)]docosa-1(20),3(22),4,6,9(21),10,12,16,18-nonaen-12-yl]-2-{(3R)-1-[(5-methylisoxazol-4-yl)carbonyl]pyrrolidin-3-yl}acetamide bis(trifluoroacetate)] are 246 nM and 62 nM.
As for `N#Cc1ccc(NC(=O)N2CC[C@@H](CC(=O)Nc3ccc4cc3CCc3cncc(c3)Nc3ncc(Cl)c(n3)N4)C2)cc1` [Example D114, (3S)-3-(2-{[6-Chloro-2,4,8,18,22-pentaazatetracyclo[14.3.1.1(3,7).1(9,13)]docosa-1(20),3(22),4,6,9(21),10,12,16,18-nonaen-12-yl]amino}-2-oxoethyl)-N-(4-cyanophenyl)pyrrolidine-1-carboxamide bis(trifluoroacetate)], the IC50 in assay [1] was found to be 83 nM; in assay [2] (Table D1), 9 nM.
The corresponding values for `O=C(C[C@H]1CCN(C(=O)c2cn[nH]c2)C1)Nc1ccc2cc1CCc1cncc(c1)Nc1ncc(Cl)c(n1)N2` [Example D129-b, N-[6-Chloro-2,4,8,18,22-pentaazatetracyclo[14.3.1.1(3,7).1(9,13)]docosa-1(20),3(22),4,6,9(21),10,12,16,18-nonaen-12-yl]-2-[(3R)-1-(1H-pyrazol-4-ylcarbonyl)pyrrolidin-3-yl]acetamide bis(trifluoroacetate)] are 600 nM and 33 nM.
The like results for `N#Cc1cccc(NC(=O)N2CC[C@@H](CC(=O)Nc3ccc4cc3CCc3cncc(c3)Nc3ncc(Cl)c(n3)N4)C2)c1` [Example D115, (3S)-3-(2-{[6-Chloro-2,4,8,18,22-pentaazatetracyclo[14.3.1.1(3,7).1(9,13)]docosa-1(20),3(22),4,6,9(21),10,12,16,18-nonaen-12-yl]amino}-2-oxoethyl)-N-(3-cyanophenyl)pyrrolidine-1-carboxamide bis(trifluoroacetate)] were, in that order, 163 nM and 19 nM.
The corresponding values for `Cn1ccc(C(=O)N2CC[C@@H](CC(=O)Nc3ccc4cc3CCc3cncc(c3)Nc3ncc(Cl)c(n3)N4)C2)n1` [Example D121, N-[6-Chloro-2,4,8,18,22-pentaazatetracyclo[14.3.1.1(3,7).1(9,13)]docosa-1(20),3(22),4,6,9(21),10,12,16,18-nonaen-12-yl]-2-{(3S)-1-[(1-methyl-1H-pyrazol-3-yl)carbonyl]pyrrolidin-3-yl}acetamide bis(trifluoroacetate)] are 550 nM and 75 nM.
Consider `O=C(C[C@@H]1CCN(C(=O)c2ccno2)C1)Nc1ccc2cc1CCc1cncc(c1)Nc1ncc(Cl)c(n1)N2` [Example D120, N-[6-Chloro-2,4,8,18,22-pentaazatetracyclo[14.3.1.1(3,7).1(9,13)]docosa-1(20),3(22),4,6,9(21),10,12,16,18-nonaen-12-yl]-2-[(3S)-1-(isoxazol-5-ylcarbonyl)pyrrolidin-3-yl]acetamide bis(trifluoroacetate)], for which the half-maximal inhibitory concentration (IC50) came out at 397 nM in assay [1] and 20 nM in assay [2] (Table D1).

As a reminder, the IC50 is the midpoint of a concentration-inhibition curve.

These data come from patent US8871753B2, “Macrocyclic compounds and their use as kinase inhibitors” (Incyte Corporation, priority 2008, dated 2014).
